Experimental findings from patent US8492347B2, “Peptide for induction of immune tolerance as treatment for systemic lupus erythematosus” (The Regents of the University of California, priority 2007, dated 2013) are described below.

Assay type in all cases: in vivo
Experiment [1] relates to BWF1 mice. The experiment is described as follows: anti-DNA antibodies (ELISA) in mice fed peptide. Particulars: 250 ug fed 5 days out of each 30 from age 10 weeks. The procedure: (§1) Anti-DNA antibodies were measured by ELISA and proteinuria by Azostix (see, e.g. Yang et al., J. I., 2003, 171: 2142-2153).
(§2) We also observed the clinical effects of feeding either D- or L-peptides at the low, medium and high doses of each. Because mRNA analysis of mesenteric lymph nodes provided evidence that high dose D-peptide would induce tolerance, we began new experiments to compare high dose (250 ug) feedings of D-peptide to the same dose of L-peptide. A control group was fed saline on the same schedule as the peptide feedings, which is daily for 5 days out of each 30 days. Each group contains 14 mice; treatment was begun at age 10 weeks. Observed effects on anti-DNA are as follows. […] Note that the saline control group is lower than the positive control anti-DNA, which is serum from BWF1 mice with heavy proteinuria and imminent death. Thus, the saline control has not reached the expected high level at this point but should do so in the next 2 months.
In general terms: An ELISA detects its analyte on a solid surface through an enzyme-linked reagent.

The test system of experiment [2] is BWF1 mice. The experiment is described as follows: cytokine and Foxp3 mRNA in mesenteric lymph nodes after peptide feeding. Particulars: mesenteric lymph nodes one week after feeding. The procedure: Cytokine measurement in the supernatant of cultured spleen cells was done with BD OptEIA™ ELISA kits (BD Biosciences and Bio legends Inc., San Diego, Calif.) for IFNγ, IL-2, TGFβ and IL-10. Intracellular mRNA encoding IFNγ, IL-10, Foxp3 and TGFβ was analyzed by real-time RT PCR. GAPDH was used as a house-keeping gene for normalization.
Real-time PCR was analyzed according to art accepted protocols (see, e.g. Hahn et al., Ann NY Acad Sci 2005; 1051:433-41). Briefly, total RNA was isolated with TRIzol (Invitrogen Life Technologies, Carlsbad, Calif.) as per manufacturer's protocol. Reverse transcription used 50 ng of total RNA. The oligonucleotide sequences used for the primers and TaqMan probes are as follows; IFN-γ forward, 5′ TGA GAC AGA AGT TCT GGG CTTCT 3′ (SEQ ID NO: 9); reverse, 5′ CAAGAT GCA GTG TGT AGC GTTCA 3′ (SEQ ID NO: 10): probe, 6FAM TCC TGCGGCCTAGCTCTGAGA TAMRA (SEQ ID NO: 11). IL-10 forward, 5′ CAGCCGGGAAGACAATAACTG 3′ (SEQ ID NO: 12); reverse, 5′ CCGCAGCTCTAGGAGCATGT 3′ (SEQ ID NO: 13); probe 6FAM ACCCACTTCCCAGTCGGCCAGAG TAMRA. TGFβ forward, 5′ AAACGGAAGCGCATCGAA 3′ (SEQ ID NO: 14); reverse, 5′ […] 3′ (SEQ ID NO: 15), probe 6FAM […] TAMRA (SEQ ID NO: 16). Foxp3 forward, 5′[…] 3′ (SEQ ID NO: 17); reverse, 5′ […] 3′ (SEQ ID NO: 18); probe 6FAM […] TAMRA (SEQ ID NO: 19). The amplification primers were at 900 nM and the probe at 200 nM. A passive reference dye (ROX) provided an internal standard for normalization of FAM fluorescence, correcting for fluctuations due to volume changes. For relative quantitation, a standard curve was constructed for each primer and probe set, using total RNA. RNA was isolated from spleen cells of 10-13 week-old naïve or tolerized mice. Spleen cells from 2 to 3 mice in each group were pooled for each experimental group. For some experiments, CD4^+ and CD8^+ cells were isolated by positive selection using micro beads with Miltenyi AutoMACS as described above. A ribosomal RNA control primer and probe set (Applied Biosystems) were used for normalization purposes. […]

For experiment [3], the system named is BWF1 mice. The experiment is described as follows: proteinuria (Azostix) in mice fed peptide. The conditions noted are these: 250 ug fed 5 days out of each 30 from age 10 weeks; for proteinuria vs saline: at 34 weeks. The procedure:
as §1, §2
Observed effects on Proteinuria are as follows.

Where no end group is shown, it is not given here. [ ]: non-standard residue; d: D form.

“FIEWNKLRFRQGLEW ([dF][dI][dE][dW][dN][dK][dL][dR][dF][dR][dQ]G[dL][dE][dW]) [D-pCons]”: the “anti-DNA antibody levels vs saline” value with BWF1 mice [1] (at 24 weeks of age, not statistically significant) is reported as “trends to lower anti-DNA antibody levels”; in the experiment with BWF1 mice [1] (at 34 weeks, one-tailed t test, listed as D-peptide), “borderline (p=0.17 by one-tailed t test)”. The “mRNA pattern: increase in Foxp3 and TGFb with decrease in IFNg” value in the experiment on BWF1 mice [2] (high dose 250 ug fed, listed as D-peptide) is “All desired features”. Further, in the experiment with BWF1 mice [3] (at 24 weeks of age), the “mean level of proteinuria (zero to 4+)” value is reported as “no differences in mean level of proteinuria”. The proteinuria vs saline entry in the experiment on BWF1 mice [3] (listed as D-peptide) is listed as “lower in the D-peptide group (p=0.18)”.

For the sequence FIEWNKLRFRQGLEW [L-pCons], the “anti-DNA antibody levels vs saline” value with BWF1 mice [1] (at 34 weeks, one-tailed t test, listed as L-peptide) is on record as “significantly lower than saline (p=0.03)”. Further, the “mRNA pattern: increase in Foxp3 and TGFb with decrease in IFNg” value in the experiment on BWF1 mice [2] (high dose 250 ug fed, listed as L-peptide) is “all desired features”; in the experiment on BWF1 mice [2] (middle dose 100 ug fed, listed as L-peptide) it was “all desired features”. The proteinuria vs saline result in the experiment with BWF1 mice [3] (listed as L-peptide) was “lower in the L-peptide group (p=0.01)”.
